Reference: patent publication US10654847B2, “Substituted 2-(4-heterocyclylbenzyl)isoindolin-1-one analogs as positive allosteric modulators of the muscarinic acetylcholine receptor M1” (Vanderbilt University, priority 2011, dated 2020)

Molecular target: T1, mAChR M1 (UniProt P11229)
T1 sequence (P11229 1-460): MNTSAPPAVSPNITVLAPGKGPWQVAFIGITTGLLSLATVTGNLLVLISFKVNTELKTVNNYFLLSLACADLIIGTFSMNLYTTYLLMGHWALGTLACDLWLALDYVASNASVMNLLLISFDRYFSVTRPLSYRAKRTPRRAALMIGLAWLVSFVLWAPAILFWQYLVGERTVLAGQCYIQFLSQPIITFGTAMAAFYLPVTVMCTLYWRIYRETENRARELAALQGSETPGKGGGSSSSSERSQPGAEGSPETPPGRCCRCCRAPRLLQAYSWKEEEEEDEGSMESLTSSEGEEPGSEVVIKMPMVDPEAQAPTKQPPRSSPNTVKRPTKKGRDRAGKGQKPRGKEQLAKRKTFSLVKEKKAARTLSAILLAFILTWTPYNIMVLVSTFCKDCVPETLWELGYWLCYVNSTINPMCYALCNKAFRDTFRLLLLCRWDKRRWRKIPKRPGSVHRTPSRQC
Assay: mAChR M1 cell-based functional assay (calcium mobilization, potentiation of EC20 acetylcholine response)
Conditions: for Emax (%): % ACh maximum at 30 μM, mAChR M1-expressing CHO-K1 cells, calcium flux; for pEC50 / EC50: positive allosteric modulation of EC20 ACh response, mAChR M1 CHO-K1 cells; for pEC50: <5 estimated where no plateau; for EC50: >10 μM estimated where no plateau, read-out: EC50

Row | Emax (%) | pEC50 | EC50 [µM] | SMILES
1 | <30 | <5.00 | > 10 | O=C1c2ccccc2CN1Cc1ccc(-n2cncn2)cc1F [Example B126]
2 | <30 | <5.00 | > 10 | Cn1ccc2cc(-c3ccc(CN4Cc5ncccc5C4=O)c(F)c3)ccc21 [Example B127]
